Data taken from paper PMC11520566, “Discovery of pyrazole-based analogs as CDK2 inhibitors with apoptotic-inducing activity: design, synthesis and molecular dynamics study” (RSC Advances, 2024).

Legend:
[1] = test system: T-47D; assay: NCI 60 five dose assay, Breast cancer; format: cell-based, human
[2] = test system: PC-3; assay: NCI 60 five dose assay, Prostate cancer; format: cell-based, human
[3] = test system: SK-MEL-5; assay: NCI 60 five dose assay, Melanoma; format: cell-based, human
[4] = test system: CCRF-CEM; assay: NCI 60 five dose assay, Leukemia; format: cell-based, human
[5] = test system: MDA-MB-468; assay: NCI 60 five dose assay, Breast cancer
[6] = test system: MCF7; assay: NCI 60 five dose assay, Breast cancer; format: cell-based, human
[7] = test system: HCC-2998; assay: NCI 60 five dose assay, Colon cancer; format: cell-based, human
[8] = test system: UACC-62; assay: NCI 60 five dose assay, Melanoma; format: cell-based, human
[9] = test system: TK-10; assay: NCI 60 five dose assay, Renal cancer; format: cell-based, human
[10] = test system: OVCAR-8; assay: NCI 60 five dose assay, Ovarian cancer; format: cell-based, human; details: Homo sapiens
[11] = Homo sapiens, read-out: LC50 (the source's name)

CC(=NNc1ccc(S(N)(=O)=O)cc1)c1ccc(NN=C2C(=O)NN=C2Nc2ccccc2)cc1 [Compound 4, 4-(2-(1-(4-(2-(5-oxo-3-(phenylamino)-1,5-dihydro-4H-pyrazol-4-ylidene)hydrazinyl)phenyl)ethylidene)hydrazinyl)benzene sulfonamide] was tested, and the GI50 ([1]; Homo sapiens, T47D) was 2220 nM, the CC50 ([1]; Homo sapiens, T47D, read-out: LC50 (the source's name)) was 23.9 µM and the “Percent Growth” value ([1]; Log10 Concentration -4.0 Molar) was -88%. The “Percent Growth” value ([1]; Log10 Concentration -5.0 Molar) was -27%, the “Percent Growth” value ([1]; Log10 Concentration -6.0 Molar) was 91% and the “Percent Growth” value ([1]; Log10 Concentration -7.0 Molar) was 98%. The “Percent Growth” value ([1]; Log10 Concentration -8.0 Molar) was 90%, the GI50 ([2]; Homo sapiens) was 3.06 µM and the CC50 [2, 11] was 35.8 µM. The “Percent Growth” value ([2]; Log10 Concentration -4.0 Molar) was -95%, the “Percent Growth” value ([2]; Log10 Concentration -5.0 Molar) was 5% and the “Percent Growth” value ([2]; Log10 Concentration -6.0 Molar) was 92%. The “Percent Growth” value ([2]; Log10 Concentration -7.0 Molar) was 95%, the “Percent Growth” value ([2]; Log10 Concentration -8.0 Molar) was 93% and the GI50 ([3]; Homo sapiens) was 3.32 µM. For the same molecule, the CC50 [3, 11] was 35.8 µM, the “Percent Growth” value ([3]; Log10 Concentration -4.0 Molar) was -100% and the “Percent Growth” value ([3]; Log10 Concentration -5.0 Molar) was 12%. For the same molecule, the “Percent Growth” value ([3]; Log10 Concentration -6.0 Molar) was 91%, the “Percent Growth” value ([3]; Log10 Concentration -7.0 Molar) was 100% and the “Percent Growth” value ([3]; Log10 Concentration -8.0 Molar) was 95%. The GI50 ([4]; Homo sapiens) was 2630 nM, the CC50 [4, 11] was greater than 100 µM and the “Percent Growth” value ([4]; Log10 Concentration -4.0 Molar) was -31%. The “Percent Growth” value ([4]; Log10 Concentration -5.0 Molar) was -5%, the “Percent Growth” value ([4]; Log10 Concentration -6.0 Molar) was 90% and the “Percent Growth” value ([4]; Log10 Concentration -7.0 Molar) was 100%. For the same molecule, the “Percent Growth” value ([4]; Log10 Concentration -8.0 Molar) was 98%, the GI50 ([5]; Homo sapiens, MDA-MB-468) was 1400 nM and the CC50 ([5]; Homo sapiens, MDA-MB-468, read-out: LC50) was 6.41 µM. It also gave a TGI ([5]; MDA-MB-468) of 3 µM, a GI50 ([6]; Homo sapiens) of 2400 nM and a CC50 [6, 11] of 27.4 µM. The “Percent Growth” value ([6]; Log10 Concentration -4.0 Molar) was -97%, the “Percent Growth” value ([6]; Log10 Concentration -5.0 Molar) was -14% and the “Percent Growth” value ([6]; Log10 Concentration -6.0 Molar) was 89%. The “Percent Growth” value ([6]; Log10 Concentration -7.0 Molar) was 93%, the “Percent Growth” value ([6]; Log10 Concentration -8.0 Molar) was 93% and the GI50 ([7]; Homo sapiens) was 2290 nM. The CC50 [7, 11] was 21.3 µM, the “Percent Growth” value ([7]; Log10 Concentration -4.0 Molar) was -100% and the “Percent Growth” value ([7]; Log10 Concentration -5.0 Molar) was -26%. For the same molecule, the “Percent Growth” value ([7]; Log10 Concentration -6.0 Molar) was 93%, the “Percent Growth” value ([7]; Log10 Concentration -7.0 Molar) was 88% and the “Percent Growth” value ([7]; Log10 Concentration -8.0 Molar) was 80%. The GI50 ([8]; Homo sapiens) was 1960 nM, the CC50 [8, 11] was 9.6 µM and the “Percent Growth” value ([8]; Log10 Concentration -4.0 Molar) was -93%. The “Percent Growth” value ([8]; Log10 Concentration -5.0 Molar) was -53%, the “Percent Growth” value ([8]; Log10 Concentration -6.0 Molar) was 92% and the “Percent Growth” value ([8]; Log10 Concentration -7.0 Molar) was 93%. For the same molecule, the “Percent Growth” value ([8]; Log10 Concentration -8.0 Molar) was 89%, the GI50 ([9]; Homo sapiens) was 18.6 µM and the CC50 [9, 11] was greater than 100 µM. The “Percent Growth” value ([9]; Log10 Concentration -4.0 Molar) was -25%, the “Percent Growth” value ([9]; Log10 Concentration -5.0 Molar) was 78% and the “Percent Growth” value ([9]; Log10 Concentration -6.0 Molar) was 101%. For the same molecule, the “Percent Growth” value ([9]; Log10 Concentration -7.0 Molar) was 102%, the “Percent Growth” value ([9]; Log10 Concentration -8.0 Molar) was 97% and the GI50 [10] was 2590 nM.
